Experimental data published in ChEMBL document CHEMBL5034030, “Dolabrane Diterpenoids from the Chinese Liverwort Notoscyphus lutescens” (J Nat Prod, 2021).
Calls of active or inactive are those of the source. The rule behind the calls is not given here.

Legend:
Assay type in all cases: cell-based
[1] = Cytotoxicity against mouse Hepa1c1c7 cells incubated for 24 hrs by MTT based assay; settings: Hepa-1c1c7, 24 h
[2] = molecular target: NAD(P)H dehydrogenase [quinone] 1 (Mus musculus) (UniProt Q64669); experiment: Induction of quinone reductase activity in mouse Hepa1c1c7 cells assessed as maximum fold change at 50 uM incubated for 24 hrs by MTT based assay; settings: filed as activator
[3] = molecular target: NAD(P)H dehydrogenase [quinone] 1 (Mus musculus) (UniProt Q64669); experiment: Induction of quinone reductase activity in mouse Hepa1c1c7 cells assessed as maximum fold change at 3.1 to 100 uM incubated for 24 hrs by MTT based assay; settings: dose 3.1-100 µM

NAD(P)H dehydrogenase [quinone] 1 (Mus musculus), sequence (Q64669 whole entry): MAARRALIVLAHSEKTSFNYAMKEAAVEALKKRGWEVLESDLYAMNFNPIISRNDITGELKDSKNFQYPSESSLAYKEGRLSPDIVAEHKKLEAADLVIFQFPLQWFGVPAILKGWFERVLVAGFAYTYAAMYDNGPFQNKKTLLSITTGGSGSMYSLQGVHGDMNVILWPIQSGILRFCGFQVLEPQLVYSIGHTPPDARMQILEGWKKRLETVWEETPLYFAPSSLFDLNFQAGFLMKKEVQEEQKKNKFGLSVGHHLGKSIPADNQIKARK

| SMILES | IC50 [1] | Activity [2] | Activity [3] |
| --- | --- | --- | --- |
| C=C[C@@]1(C)CC[C@@]2(C)[C@@H](CC[C@]34COC(=O)[C@@H]3C[C@H](O)C[C@H]24)C1 | > 50 µM | Active | – |
| C=C[C@@]1(C)CC[C@@]2(C)[C@@H](CC=C3[C@@H]2C[C@@H](Cl)[C@H](O)[C@@]3(O)CO)C1 | > 50 µM | – | inactive |
| C=C[C@@]1(C)CC[C@@]2(C)[C@@H](CC[C@@]3(C)[C@@H]2CCC(=O)[C@@H]3C)C1 | > 50 µM | – | inactive |
| C=C[C@@]1(C)CC[C@]2(C)C3=C(CC[C@H]2C1)[C@](O)(CO)[C@@H](O)[C@H](Cl)C3 | > 50 µM | Active | – |
| C=C[C@@]1(C)CC[C@@]2(C)[C@@H](CC[C@]34CO[C@@H](OC)C3=C[C@@H](O)C[C@@H]42)C1 | > 50 µM | – | inactive |
| C=C[C@@]1(C)CC[C@]2(C)C3C[C@H]4C=C(C=O)[C@]3(CC[C@H]2C1)C(O)O4 (stereo not given in full) | > 50 µM | Active | – |
| C=C[C@@]1(C)CC[C@@]2(C)[C@@H](CC[C@]34CO[C@H](OC)C3=C[C@@H](O)C[C@@H]42)C1 | > 50 µM | – | inactive |
| C=C[C@@]1(C)CC[C@]2(C)C3C[C@H]4C=C(CO)[C@]3(CC[C@H]2C1)C(OC)O4 (stereo not given in full) | > 50 µM | Active | – |
| C=C[C@@]1(C)CC[C@@]2(C)[C@@H](C[C@@H]3[C@@H](O)C4=C[C@@H](O)C[C@H]2[C@@]43C)C1 | > 50 µM | – | inactive |
| CC1=C(Cc2ccccc2)C(=O)O[C@H]1Cc1ccccc1 | > 50 µM | – | inactive |
